IC50, melting point and ED50 data for 18 compounds are collected here from US7608716B2, “Pyrazolonaphthyridine derivative” (Aska Pharmaceutical Co., Ltd., priority 2002, dated 2009).

In series [1] the test system is T1, PDE IV isozymes separated from U937 culture cells.
T1 construct: PDE IV isozymes as used herein were separated from U937 culture cells by using an anion exchange chromatography
The series is described as follows: PDE IV inhibition ([3H]-cAMP hydrolysis). In kind it is biochemical. To be noted: cAMP 1 μM substrate, 30° C., 20 minutes. As to the method:
PDE IV isozymes as used herein were separated from U937 culture cells by using an anion exchange chromatography. Type IV PDE isozyme was admixed with ethylene glycol (EG) to adjust the final EG concentration to 30%, then stored at −20° C. and diluted when used. The enzymatic activity for PDE IV was measured using cAMP as a substrate.
Each test compound was dissolved in DMSO to adjust the final concentration to 1% (2.5 μl/tube).
Incubation Buffer Solution (pH7.5):
• Tris-HCl (50 mM), magnesium chloride (6 mM), dithiothreitol (2.5 mM), 5-nucleotidase (4 μg/ml), bovine serum albumin (0.23 mg/ml), and cAMP (1 μM).
A mixture of the aforementioned test compound solution and the buffer solution was incubated at 30° C. for 20 minutes. The reaction was quenched by admixing with 1 ml of anion exchange resin slurry (AG1-X8, 200-400 meshes, chloride form; Bio-Rad) to absorb unreacted substrates. After the reaction stopped, the mixture was centrifuged at 800×g for 10 minutes, and the resulting supernatant was collected with vials in 250 μl aliquots. To each vial was added 5 ml of ACS-II (scintillator, Amersham). The radioactivity was measured with a liquid scintillator counter for [^3H]-adenosine and set as the PDE IV activity.

Series [2] deals with actively sensitized guinea pigs. Put plainly: Inhibition of antigen-induced immediate asthmatic response (airway resistance, Konzett-Rossler). In kind it is in vivo, Hartley guinea pigs. Conditions: Cavia porcellus, oral, 60 minutes prior to antigen-challenge, reduction of increase in airway resistance, read-out: Inhibition of Asthmatic response ED50: mg/kg orally. As to the method:
Male Hartley outbred guinea pigs were sensitized by administering intraperitoneally physiological saline (0.5 ml) containing ovalbumin (1 mg, antigen) and 5×10^9 inactivated Bordetella pertussis dead cells (adjuvant). Eleven to thirteen days after the first sensitization, 0.05 ml of an ovalbumin solution (1 mg/ml) (ovalbumin is dissolved in physiological saline) was administered to the lateroabdominal region of each guinea pig intracutaneously. An establishment of sensitization was checked relying on cutaneous reaction. Only guinea pigs wherein significant reddening responses occurred 5 to 10 minutes later were employed in the next measurement test for airway resistance.
The guinea pigs (3 animals per group) actively sensitized in the above step (1) were employed to measure for their airway pressure according to Konzett-Rossler method (Arch. Exp. Path. Pharmakol., 195, 71 (1940)).
Thirteen days after the final sensitization, guinea pigs fasted overnight, and were on the next day anesthetized with a pentobarbital solution (30 mg/1.2 ml/kg, dissolved in physiological saline, intraperitoneal administration). After the guinea pigs were fixed in a supine position, their trachea was incised followed by insertion with one port of a 4-port cannula. Among the remaining 3 ports, 2 ports were connected to an artificial respirator (Model 683, Harvard). The animals were ventilated with 10 ml/kg of air per ventilation at a rate of 60 beats/min via the artificial respirator from the cannula. One port remainder was connected to a respiratory amplifier (AR-601G, Nihon Kohden, Japan) via an airflow resistance tube (TV-241T, Nihon Kohden, Japan) and a differential pressure transducer (TP-602T, Nihon Kohden, Japan) connected with a control box (RY-111S, Nihon Kohden, Japan). From a catheter inserted into a left carotid artery, blood pressures were monitored with a blood pressure measurement unit (AP641G, NEC Corp., Japan) via a blood pressure transducer (TP-300T, Nihon Kohden, Japan), and heart rates were recorded on a thermal recorder (WT-685G, Nihon Kohden, Japan), relying on blood pressure pulse waves after being led to a cardiograph unit (AT601G, Nihon Kohden, Japan).
After airway pressure became stable, an ovalbumin solution (1 mg/ml, dissolved in physiological saline) was administered at a dose of 1 ml/kg via a tube with which the right jugular vein of guinea pigs was cannulated.
Each test compound was suspended in 0.5% CMC-Na solution and administered orally with an oral sound at a dose of 0.03 to 20 mg/2 ml/kg 60 minutes prior to the antigen-challenge. Control groups received only 0.5% CMC-Na solution in an equivalent amount. The pentobarbital-anesthetization and tracheal incision were conducted 30 minutes prior to the antigen-challenge.
Each percent reduction of increase in airway resistance (each test compound-administered group versus control group) was calculated according to the equation given below. ED50 was obtained by Probit method.

A further series relates to TNF-α production. Put plainly: Inhibition of TNF-α production in galactosamine- and LPS-stimulation. To be noted: Mus musculus; C3H/HeN mice, oral, 1 hour before galactosamine/LPS i.v.; serum TNF-α by ELISA 1 hour later; read-out: Inhibition of TNF-α production ED50: mg/kg orally. In kind it is in vivo. How it is done:
A suspension of each test compound in 0.5% CMC-Na solution was administered orally to C3H/HeN mice at a dose of 0.10 to 10 mg/kg. One hour later, the animals received intravenously galactosamine at a dose of 800 mg/kg and LPS at a dose 5 μg/kg to raise the induction of TNF-α production. One hour later after the galactosamine- and LPS-administration, amounts of TNF-α in serum samples were measured by ELISA, and ED50 was obtained. Roflumilast and SB207499 were used for the reference compounds in this assay.
On the technique in general: In an ELISA, binding on a coated surface is turned into a signal by an enzyme label.

For orientation: IC50 means the concentration needed to halve the response being measured. With `CCOC(=O)Cc1ccc(Cc2n[nH]c3c2c(=O)n(-c2ccccc2)c2ncccc32)cc1` [Example No. 32, 3-(4-ethoxycarbonylmethylbenzyl)-5-phenyl-1H-pyrazolo[4,3-c][1,8]naphthyridin-4 (5H)-one], the IC50 in series [1] was determined as 0.028 µM.
`N#Cc1cccc(-n2c(=O)c3c(Cc4ccccc4)n[nH]c3c3cccnc32)c1` [Example No. 53, 3-benzyl-5-(3-cyanophenyl)-1H-pyrazolo[4,3-c][1,8]-naphthyridin-4 (5H)-one]: in series [1], the IC50 came out at 0.028 µM.
`COc1ccc(Cc2n[nH]c3c2c(=O)n(-c2ccccc2)c2ncccc32)c(OC)c1` [Example No. 30, 3-(2,4-dimethoxybenzyl)-5-phenyl-1H-pyrazolo[4,3-c][1,8]naphthyridin-4 (5H)-one] showed an IC50 in series [1] of 0.049 µM.
In general, melting point refers to the temperature of the solid-liquid transition. Turning to `O=c1c2c(Cc3ccc(O)cc3)n[nH]c2c2cccnc2n1-c1ccccc1` [Example No. 41, 3-(4-hydroxybenzyl)-5-phenyl-1H-pyrazolo[4,3-c][1,8]-naphthyridin-4 (5H)-one], the melting point was in the range of 316 to 317 °C. In series [1], this compound gave an IC50 of 0.089 µM.
As to `O=c1c2c(CCc3ccncc3)n[nH]c2c2cccnc2n1-c1cccc([N+](=O)[O-])c1` [Example No. 6, 5-(3-nitrophenyl)-3-[2-(pyridin-4-yl)ethyl]-1H-pyrazolo[4,3-c][1,8]naphthyridin-4 (5H)-one], the melting point was in the range of 161 to 165 °C. The compound also gave an IC50 in series [1] of 0.025 µM.
In the case of `O=c1c2c(CCc3cc[n+]([O-])cc3)n[nH]c2c2cccnc2n1-c1ccccc1` [Example No. 5, 5-phenyl-3-[2-(1-oxypyridin-4-yl)ethyl]-1H-pyrazolo[4,3-c][1,8]-naphthyridin-4 (5H)-one], the melting point was 285 °C (dec.). In series [1], the IC50 was 0.067 µM.
In series [1], `O=c1c2c(Cc3ccccc3)n[nH]c2c2cccnc2n1-c1cccc([N+](=O)[O-])c1` [Example No. 56, 3-benzyl-5-(3-nitrophenyl)-1H-pyrazolo[4,3-c][1,8]-naphthyridin-4 (5H)-one] showed an IC50 of 0.023 µM.
Turning to `O=c1c2c(Cc3ccccc3[N+](=O)[O-])n[nH]c2c2cccnc2n1-c1ccccc1` [Example No. 26, 3-(2-nitrobenzyl)-5-phenyl-1H-pyrazolo[4,3-c][1,8]naphthyridin-4 (5H)-one], half-maximal inhibition in series [1] (IC50) was put at 0.02 µM.
As to `COc1ccc(OC)c(Cc2n[nH]c3c2c(=O)n(-c2ccccc2)c2ncccc32)c1` [Example No. 27, 3-(2,5-dimethoxybenzyl)-5-phenyl-1H-pyrazolo[4,3-c][1,8]naphthyridin-4 (5H)-one], in series [1], the IC50 worked out at 0.021 µM.
Regarding `O=C(O)Cc1ccc(Cc2n[nH]c3c2c(=O)n(-c2ccccc2)c2ncccc32)cc1` [Example No. 46, 3-(4-carboxymethylbenzyl)-5-phenyl-1H-pyrazolo[4,3-c][1,8]naphthyridin-4 (5H)-one], the melting point was in the range of 297 to 300 °C. Besides, in series [1], the IC50 is 0.032 µM.
For the compound `O=C(O)c1ccc(CCc2n[nH]c3c2c(=O)n(-c2ccccc2)c2ncccc32)cc1` [Example No. 14, 3-[2-(4-carboxyphenyl)ethyl]-5-phenyl-1H-pyrazolo[4,3-c][1,8]naphthyridin-4 (5H)-one], in series [1], the IC50 stood at 0.057 µM.
As to `COc1ccc([C@]2(C#N)CC[C@@H](C(=O)O)CC2)cc1OC1CCCC1` [SB207499, cis-4-cyano-4-[3-(cyclopentyloxy)-4-methoxyphenyl]cyclohexane-1-carboxylic acid, reference compound], the figures for the ED50 (in series [2]; with TNF-α production) were > 20 mg/kg and 3.3 mg/kg, respectively.
With `COc1ccc(C2CNC(=O)C2)cc1OC1CCCC1` (single isomer, unassigned; (-)) [Rolipram, (−)-4-[3-(cyclopentyloxy)-4-methoxyphenyl]-2-pyrrolidinone], in series [2], the ED50 was determined as 0.51 mg/kg.
Turning to `O=c1c2c(Cc3cccs3)n[nH]c2c2cccnc2n1-c1ccccc1` [Example No. 23, 3-(2-thienylmethyl)-5-phenyl-1H-pyrazolo[4,3-c][1,8]naphthyridin-4 (5H)-one], the IC50 in series [1] was 0.082 µM.
In turn, `O=c1c2c(Cc3ccccc3)n[nH]c2c2cccnc2n1-c1cccc(F)c1` [Example No. 58, 3-benzyl-5-(3-fluorophenyl)-1H-pyrazolo[4,3-c][1,8]-naphthyridin-4 (5H)-one] yielded an IC50 in series [1] of 0.035 µM.
On the same count and under the same terms, as for `COc1ccc(Cc2n[nH]c3c2c(=O)n(-c2ccccc2)c2ncccc32)cc1` [Example No. 21, 3-(4-methoxybenzyl)-5-phenyl-1H-pyrazolo[4,3-c][1,8]naphthyridin-4 (5H)-one], the figure is 0.088 µM.
Compound `COc1ccccc1Cc1n[nH]c2c1c(=O)n(-c1ccccc1)c1ncccc21` [Example No. 22, 3-(2-methoxybenzyl)-5-phenyl-1H-pyrazolo[4,3-c][1,8]naphthyridin-4 (5H)-one] registered an IC50 in series [1] of 0.026 µM.
Consider `Nc1ccc(CCc2n[nH]c3c2c(=O)n(-c2ccccc2)c2ncccc32)cc1` [Example No. 13, 3-[2-(4-aminophenyl)ethyl]-5-phenyl-1H-pyrazolo[4,3-c][1,8]naphthyridin-4 (5H)-one], for which 0.031 µM corresponded to half-maximal inhibition in series [1] (IC50).
